Series [1] has as its target T1, Ectonucleotide pyrophosphatase/phosphodiesterase family member 1 (Homo sapiens) (UniProt P22413).
T1 sequence (whole entry): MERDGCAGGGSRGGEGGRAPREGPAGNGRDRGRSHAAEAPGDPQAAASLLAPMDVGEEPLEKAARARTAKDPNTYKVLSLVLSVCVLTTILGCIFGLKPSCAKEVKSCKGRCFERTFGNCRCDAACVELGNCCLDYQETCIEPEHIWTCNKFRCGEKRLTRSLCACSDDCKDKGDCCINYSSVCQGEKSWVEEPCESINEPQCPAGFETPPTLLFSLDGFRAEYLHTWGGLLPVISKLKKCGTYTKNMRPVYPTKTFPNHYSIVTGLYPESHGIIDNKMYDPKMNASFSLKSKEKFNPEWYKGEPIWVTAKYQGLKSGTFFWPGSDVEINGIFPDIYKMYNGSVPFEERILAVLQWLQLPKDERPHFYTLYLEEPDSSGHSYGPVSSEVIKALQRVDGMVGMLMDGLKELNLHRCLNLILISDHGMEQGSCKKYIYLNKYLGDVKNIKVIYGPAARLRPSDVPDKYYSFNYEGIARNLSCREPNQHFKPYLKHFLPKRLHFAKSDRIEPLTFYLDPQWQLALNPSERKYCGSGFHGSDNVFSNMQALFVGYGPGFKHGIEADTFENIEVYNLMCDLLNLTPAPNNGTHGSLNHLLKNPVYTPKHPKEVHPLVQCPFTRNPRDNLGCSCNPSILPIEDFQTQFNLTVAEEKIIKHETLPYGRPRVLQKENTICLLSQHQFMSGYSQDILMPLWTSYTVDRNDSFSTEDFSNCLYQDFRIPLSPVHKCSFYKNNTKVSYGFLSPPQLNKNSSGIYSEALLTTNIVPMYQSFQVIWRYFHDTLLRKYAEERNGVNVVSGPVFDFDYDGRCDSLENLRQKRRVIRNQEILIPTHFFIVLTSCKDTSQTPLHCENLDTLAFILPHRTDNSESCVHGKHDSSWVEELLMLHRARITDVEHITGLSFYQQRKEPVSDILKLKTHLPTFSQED
Description: Inhibition of PC1 by in vitro Kinase-Glo assay.

The target of series [2] is Voltage-gated inwardly rectifying potassium channel KCNH2 (Homo sapiens, UniProt Q12809). Description: Displacement of [3H]-dofetilid from human ERG expressed in HEK293 cells. The series is classed as cell-based.
Voltage-gated inwardly rectifying potassium channel KCNH2, sequence (Q12809 whole entry): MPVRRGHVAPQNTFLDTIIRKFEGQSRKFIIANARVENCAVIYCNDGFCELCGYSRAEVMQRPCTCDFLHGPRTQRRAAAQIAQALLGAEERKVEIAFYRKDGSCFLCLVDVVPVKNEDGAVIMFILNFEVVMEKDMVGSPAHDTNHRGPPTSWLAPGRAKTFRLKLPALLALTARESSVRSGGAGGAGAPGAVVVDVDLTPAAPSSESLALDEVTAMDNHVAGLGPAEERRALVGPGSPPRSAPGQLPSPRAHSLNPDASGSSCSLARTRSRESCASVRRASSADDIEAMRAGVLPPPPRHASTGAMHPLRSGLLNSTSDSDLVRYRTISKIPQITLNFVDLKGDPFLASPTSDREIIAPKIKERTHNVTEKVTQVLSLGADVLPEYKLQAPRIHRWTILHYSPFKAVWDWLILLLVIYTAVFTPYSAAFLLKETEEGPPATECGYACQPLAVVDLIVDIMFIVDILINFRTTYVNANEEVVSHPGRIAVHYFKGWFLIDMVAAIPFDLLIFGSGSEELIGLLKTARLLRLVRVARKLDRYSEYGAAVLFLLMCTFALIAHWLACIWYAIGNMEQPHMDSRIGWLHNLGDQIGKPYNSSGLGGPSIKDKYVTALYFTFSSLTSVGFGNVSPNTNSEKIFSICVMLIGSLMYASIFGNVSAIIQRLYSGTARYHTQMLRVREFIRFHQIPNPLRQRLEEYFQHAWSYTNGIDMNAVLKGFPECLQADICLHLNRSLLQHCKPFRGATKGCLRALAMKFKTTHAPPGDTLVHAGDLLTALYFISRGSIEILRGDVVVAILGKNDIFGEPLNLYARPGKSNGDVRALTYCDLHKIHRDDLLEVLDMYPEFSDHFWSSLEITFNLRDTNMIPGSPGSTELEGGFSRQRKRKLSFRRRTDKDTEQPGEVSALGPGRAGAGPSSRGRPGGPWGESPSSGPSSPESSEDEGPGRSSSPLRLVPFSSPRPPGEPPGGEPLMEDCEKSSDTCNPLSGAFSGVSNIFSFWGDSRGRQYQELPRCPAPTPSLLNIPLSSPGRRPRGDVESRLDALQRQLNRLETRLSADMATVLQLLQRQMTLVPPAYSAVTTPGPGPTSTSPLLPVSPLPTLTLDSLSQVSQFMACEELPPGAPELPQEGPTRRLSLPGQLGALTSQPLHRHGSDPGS
Series [3] can be described thus: Selectivity for PC1 to human ERG channel.

A value given as a limit tells only on which side of the number the result lay.

Consider `COc1cc2nc(/C=C/c3cccnc3)nc(N3CCC(CNS(N)(=O)=O)CC3)c2cc1OC`, for which the results for the INH in series [1] and in series [2] were 0.063 µM and 3.296 µM, respectively. For the same molecule, the Ratio in series [3] was 52.

For the molecule `Cc1nccn1-c1cc(N2CCC(CCNS(N)(=O)=O)CC2)ncn1`, the INH in series [1] is 0.6 µM; in series [2], more than 10 µM. Besides, the Ratio in series [3] is more than 16.

With `COc1ccc2c(N3CCC(CNS(N)(=O)=O)CC3)ncnc2c1`, the INH was 0.166 µM in series [1] and more than 10 µM in series [2]. For the same molecule, in series [3], the Ratio is more than 60.

On to `Cc1nccn1-c1cc(N2CCC(CNS(N)(=O)=O)CC2)ncn1`, for which the INH in series [1] and in series [2] was more than 10 µM each time.

Turning to `Cc1nccn1-c1nccc(N2CCC(CCNS(N)(=O)=O)CC2)n1`, the results for the INH in series [1] and in series [2] were 2.45 µM and 6.867 µM, respectively.

With `COc1cc2nc(/C=C/c3cccnc3)nc(N3CCC(CCNS(N)(=O)=O)CC3)c2cc1OC`, the INH in series [1] was 0.0353 µM; in series [2], 0.276 µM. For the same molecule, the Ratio in series [3] is 8.

As for `COc1ccc2c(N3CCC(CCNS(N)(=O)=O)CC3)ncnc2c1`, the results for the INH in series [1] and in series [2] were 0.187 µM and 0.1202 µM, respectively. In addition, in series [3], the Ratio was determined as 1.

For `COc1cc2ncnc(N3CCC(CCNS(N)(=O)=O)CC3)c2cc1OC`, the INH in series [1] amounted to 0.0362 µM; in series [2], 0.601 µM. Besides, the Ratio in series [3] was determined as 17.

Molecule `CCc1nc(N2CCC(CCNS(N)(=O)=O)CC2)c2cc(OC)c(OC)cc2n1` yielded an INH in series [1] of 0.214 µM.

Turning to `COc1cc2ncnc(N3CCC(CNS(N)(=O)=O)CC3)c2cc1OC`, the INH in series [1] is 0.061 µM; in series [2] it was more than 10 µM. In addition, in series [3], the Ratio is more than 160.

`NS(=O)(=O)NCCC1CCN(c2ncnc3ccc(Cl)cc23)CC1` showed an INH in series [1] of 5.98 µM.

In the case of `NS(=O)(=O)NCCC1CCN(c2ncnc3cc(Cl)ccc23)CC1`, the INH in series [1] was more than 10 µM; in series [2], 3.4 µM.

Regarding `COc1cc2ncnc(N3CCC(NS(N)(=O)=O)CC3)c2cc1OC`, the INH in series [1] and in series [2] was more than 10 µM in each case.

The record behind these values is ChEMBL document CHEMBL1781918, “Quinazolin-4-piperidin-4-methyl sulfamide PC-1 inhibitors: alleviating hERG interactions through structure based design” (Bioorg Med Chem Lett, 2009).
